In US5663335A, “Immunosuppressive compounds and methods” (priority 1996, dated 1997):
Like-named read-outs stand apart in the source and are kept apart here.

How the values were obtained:
[1] = Cytotoxicity by MTT assay, reported with the IL-1 assay (Table I); type: cell-based; settings: mouse, thymocytes, cytotoxic when toxicity greater than 25%
Experimental: (§1) Potential cytotoxicity of the test samples was assessed by the measurement of their effect on the reduction of MTT (3-[4,5-Dimethylthiazole-2-yl]-2,5-diphenyltetrazolium bromide) by cultured cells. MTT, a yellow-colored compound, is reduced by mitochondrial enzymes to form the purple crystalline reduction product formazane, providing an index of cellular respiration on viable cells as well as a sensitive assay for cytotoxicity (Mossmann, 1983).
(§2) The cytotoxicity was assessed in cultured human PBMC and mouse thymocytes. A stock solution of MTT (Sigma) at 5 mg/ml in phosphate buffered saline, pH 7.4, was prepared and stored in the dark at 4° C. PBMCs or thymocytes were cultured with various concentrations of test samples in flatbottom 96-well tissue culture plates (Costar) under the same conditions as those described above, but the stimulants (X-35 or IL-1+PHA) were replaced by appropriate medium. Untreated cells with medium alone and without the test samples were used as controls. After incubation for 21 hours, 25 μl of MTT solution was added to each well. After an additional three hours of incubation, the experiment was terminated by addition of a solution of 10% sodium dodecyl sulfate in 0.01N HCl. Following overnight incubation at 37° C. to solubilize the formazane crystals, optical density was determined at 570-650 nm in microplate reader. […]

[2] = tested on: spleen cells (C57BL/6 responder, irradiated Balb/C stimulator); experiment: Mixed lymphocyte reaction (MLR): inhibition of responder spleen cell proliferation; type: cell-based; settings: Mus musculus, 96 h, four days incubation
Experimental: Inhibition of cell proliferation in the mixed lymphocyte reaction (MLR) (Bradley, 1980; Mishell, 1980) is a measure of in vivo immunosuppression. Spleen cells from female C57BL/6 mice, the "responder" cells, were prepared and co-cultured alone or in the presence of varying concentrations of the test compounds, with irradiated spleen cells prepared from female Balb/C mice, the "stimulator" cells. Prior irradiation of the stimulator cells rendered them unable to proliferate. A sample of the responder cells was also irradiated for use as a control. The non-irradiated responder cells proliferate in the presence of the allogenic stimulator cells. After a 78-hour incubation, tritiated thymidine was added to the mixed cell cultures, and incorporation of the labeled nucleotide into DNA was measured as an index of cell proliferation. […]
In the assay, 4×10^5 cells of R were cocultured with 4×10^5 cells of Sx in 200 μl of medium in round bottom 96 well tissue culture plates. […] The spontaneous proliferation of R was also measured.
The culture plates were incubated at 37° C. in a 5% CO2 incubator for four days. […] Cells were then harvested and counted. […] Sample cpm was calculated as (R+Sx+sample)cpm-(R+Rx +sample)cpm; control cpm was calculated as (R+Sx)cpm-(R+Rx)cpm. Percent suppression of MLR activity was calculated as (1-sample cpm/control cpm)×100. […]

[3] = Cytotoxicity by MTT assay, reported with the MLR assay (Table II); type: cell-based; settings: pbmc and thymocytes, cytotoxic when toxicity greater than 25%
Experimental: as §1, §2

[4] = Stability in blood serum (TLC); type: in vitro ADME; settings: rat serum, 37° C
Experimental: The stability of triptolide succinate in blood serum was determined as detailed in Example 10B. In this study, a solution of triptolide succinate (YM-262, free acid) in DMSO was mixed with rat serum and incubated at 37° C. The mixture was assayed periodically by thin layer chromatography (TLC) to follow the hydrolysis of the triptolide succinate over time.
A solution of triptolide succinate (free acid; YM-262) in DMSO was made at a concentration of 25 mg/ml, and 0.1 ml of this solution was mixed with 0.5 ml of rat serum. The mixture was incubated at 37° C. Aliquots of the mixture were taken at 1, 3, 5, 15, 45 minutes and 18 hours and analyzed by thin layer chromatography (TLC). The TLC plates were developed in 1:5 CH2 CI2 /Et2 O. After development, the plates were treated with iodine vapor and examined under a UV lamp. Triptolide and triptolide succinate were used as reference compounds (Rf =0.60), and 0.45, respectively).

In the case of CC(C)[C@]12O[C@H]1[C@@H]1O[C@]13[C@]1(O[C@H]1C[C@H]1C4=C(CC[C@@]13C)C(=O)OC4)[C@@H]2O [Triptolide, triptolide], the MCC [1] is reported as > 12.5 µg/mL, the IC50 ([2]; read-out: IC50 (concentration of sample producing 50% suppression of proliferation), MLR assay) is reported as 0.9 ng/mL and the IC50 ([2]; read-out: IC50, MLR assay) is reported as 2.5 nM. For the same compound, the MCC [3] was 0.0133 µg/mL, the “triptolide spot, 15 minutes (formed from triptolide succinate)” value ([4]; 15 minutes) was “a new spot corresponding to triptolide had appeared” and the “triptolide spot, 45 minutes (formed from triptolide succinate)” value ([4]; 45 minutes) was “the triptolide spot had also disappeared”.
